In PubChem BioAssay AID248 (DTP/NCI, 2004):
Where “and” joins values, the source holds several entries; their conditions need not be identical. Equal values may be shown once. Toxic doses and inconclusive results are not listed. Rule as the data show it: active = T/C of 150% or more; inactive = T/C below 125%.

System: L1210 leukemia ip in BDF1 mice, survival T/C
Assay: NCI In Vivo Anticancer Drug Screen. Data for tumor model L1210 Leukemia (intraperitoneal) in B6D2F1 (BDF1) mice
Conditions: endpoint: mean survival time, higher = longer survival
Method in brief: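 Survival endpoint. Drug-treated group vs vehicle group, expressed as T divided by C. Tumor passaged by transplantation.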

[1] = dose: 100.0 mg/kg/injection, schedule: Q01DX009 (ip), vehicle: saline with Tween-80
[2] = dose: 200.0 mg/kg/injection, schedule: Q01DX009 (ip), vehicle: saline with Tween-80
[3] = dose: 400.0 mg/kg/injection, schedule: Q01DX009 (ip), vehicle: saline with Tween-80
[4] = dose: 100.0 mg/kg/injection, schedule: Q01DX001 (ip), vehicle: saline
[5] = dose: 200.0 mg/kg/injection, schedule: Q01DX001 (ip), vehicle: saline
[6] = dose: 400.0 mg/kg/injection, schedule: Q01DX001 (ip), vehicle: saline
[7] = dose: 100.0 mg/kg/injection, schedule: Q01DX001 (ip), vehicle: saline with Tween-80
[8] = dose: 200.0 mg/kg/injection, schedule: Q01DX001 (ip), vehicle: saline with Tween-80
[9] = dose: 400.0 mg/kg/injection, schedule: Q01DX001 (ip), vehicle: saline with Tween-80
[10] = dose: 50.0 mg/kg/injection, schedule: Q01DX009 (ip), vehicle: saline with Tween-80

Measured: T/C

OCCOCCN1CCN(CCCN2c3ccccc3Sc3ccc(C(F)(F)F)cc32)CC1
active: dose: 120.0 mg/kg/injection, schedule: Q04DX003 (ip), vehicle: saline 150 % of control
inactive: dose: 1.6 mg/kg/injection, schedule: Q01DX009 (ip), vehicle: saline 104 % of control | dose: 6.25 mg/kg/injection, schedule: Q01DX009 (ip), vehicle: saline 117 % of control | dose: 9.5 mg/kg/injection, schedule: Q01DX001 (ip), vehicle: saline 100 % of control | dose: 12.5 mg/kg/injection, schedule: Q01DX009 (ip), vehicle: saline 93 % of control | dose: 12.5 mg/kg/injection, schedule: Q04DX003 (ip), vehicle: saline 114 % of control and 124 % of control | dose: 18.7 mg/kg/injection, schedule: Q04DX003 (ip), vehicle: saline 124 % of control | dose: 18.75 mg/kg/injection, schedule: Q01DX009 (ip), vehicle: saline 95 % of control | dose: 19.0 mg/kg/injection, schedule: Q01DX001 (ip), vehicle: saline 107 % of control | dose: 25.0 mg/kg/injection, schedule: Q01DX009 (ip), vehicle: saline 103 % of control | dose: 25.0 mg/kg/injection, schedule: Q04DX003 (ip), vehicle: saline 95 % of control and 118 % of control and 120 % of control | dose: 33.0 mg/kg/injection, schedule: Q04DX003 (ip), vehicle: saline 122 % of control | dose: 38.0 mg/kg/injection, schedule: Q01DX001 (ip), vehicle: saline 111 % of control | dose: 150.0 mg/kg/injection, schedule: Q04DX003 (ip), vehicle: saline 118 % of control | dose: 1.5 micrograms/kg/injection, schedule: Q01DX009 (ip), vehicle: saline 95 % of control | dose: 3.1 micrograms/kg/injection, schedule: Q01DX009 (ip), vehicle: saline 106 % of control | dose: 6.2 micrograms/kg/injection, schedule: Q01DX009 (ip), vehicle: saline 95 % of control | dose: 12.5 micrograms/kg/injection, schedule: Q01DX009 (ip), vehicle: saline 93 % of control | dose: 25.0 micrograms/kg/injection, schedule: Q01DX009 (ip), vehicle: saline 103 % of control | dose: 50.0 micrograms/kg/injection, schedule: Q01DX009 (ip), vehicle: saline 87 % of control | dose: 100.0 micrograms/kg/injection, schedule: Q01DX009 (ip), vehicle: saline 103 % of control | dose: 200.0 micrograms/kg/injection, schedule: Q01DX009 (ip), vehicle: saline 103 % of control

O=C(O)c1ccccc1CCl
inactive: [1] 101 % of control | [2] 108 % of control | [3] 95 % of control

CC#CC(O)(C(=O)OCC)C1CCCCC1 (stereo not given)
inactive: [4] 96 % of control | [5] 113 % of control | [6] 100 % of control

S=C(S)Nc1ccc(Cc2ccc(NC(=S)S)cc2)cc1
inactive: dose: 100.0 mg/kg/injection, schedule: Q04DX003 (ip), vehicle: saline with Tween-80 95 % of control | dose: 200.0 mg/kg/injection, schedule: Q04DX003 (ip), vehicle: saline with Tween-80 91 % of control | dose: 400.0 mg/kg/injection, schedule: Q04DX003 (ip), vehicle: saline with Tween-80 98 % of control

CC(=O)OC(c1ccccc1)C(Cl)(Cl)Cl (stereo not given)
inactive: [1] 93 % of control | [2] 104 % of control | [3] 97 % of control

O=[N+]([O-])c1ccc(Cl)c(OCCCOc2ccc(S(=O)(=O)F)cc2)c1
inactive: [7] 96 % of control | [8] 87 % of control | [9] 90 % of control

OCCS
inactive: dose: 25.0 mg/kg/injection, schedule: Q01DX001 (ip), vehicle: saline 105 % of control | dose: 44.0 mg/kg/injection, schedule: Q01DX001 (ip), vehicle: saline 95 % of control | dose: 50.0 mg/kg/injection, schedule: Q01DX001 (ip), vehicle: saline 97 % of control | dose: 66.0 mg/kg/injection, schedule: Q01DX001 (ip), vehicle: saline 105 % of control | [4] 100 % of control and 103 % of control | dose: 150.0 mg/kg/injection, schedule: Q01DX001 (ip), vehicle: saline 103 % of control | [5] 102 % of control and 105 % of control

[Cu+].[S-]c1ccsc1
inactive: dose: 10.0 mg/kg/injection, schedule: Q01DX001 (ip), vehicle: carboxymethylcellulose (CMC) 95 % of control | dose: 20.0 mg/kg/injection, schedule: Q01DX001 (ip), vehicle: carboxymethylcellulose (CMC) 93 % of control | dose: 40.0 mg/kg/injection, schedule: Q01DX001 (ip), vehicle: carboxymethylcellulose (CMC) 90 % of control | dose: 80.0 mg/kg/injection, schedule: Q01DX001 (ip), vehicle: carboxymethylcellulose (CMC) 106 % of control

CCCCCCC(=O)/C=C/c1ccccc1Cl
inactive: dose: 100.0 mg/kg/injection, schedule: Q01DX009 (ip), vehicle: other 98 % of control | dose: 200.0 mg/kg/injection, schedule: Q01DX009 (ip), vehicle: other 92 % of control | dose: 400.0 mg/kg/injection, schedule: Q01DX009 (ip), vehicle: other 93 % of control

COC(=O)c1ccc(OC(C)OCCCl)cc1 (stereo not given)
inactive: dose: 100.0 mg/kg/injection, schedule: Q04DX002 (ip), vehicle: saline 93 % of control | dose: 200.0 mg/kg/injection, schedule: Q04DX002 (ip), vehicle: saline 96 % of control | dose: 400.0 mg/kg/injection, schedule: Q04DX002 (ip), vehicle: saline 96 % of control

CSc1ncc(CO)c(NC(C)(C)C)n1
inactive: dose: 100.0 mg/kg/injection, schedule: Q04DX003 (ip), vehicle: saline 96 % of control | dose: 200.0 mg/kg/injection, schedule: Q04DX003 (ip), vehicle: saline 100 % of control | dose: 400.0 mg/kg/injection, schedule: Q04DX003 (ip), vehicle: saline 100 % of control

COc1cccc(/C=N/NC(=O)CNC(=O)Nc2cccc([N+](=O)[O-])c2)c1OC
inactive: [10] 89 % of control | [1] 96 % of control | [2] 89 % of control

CCOC(=O)NC1=NCC(C)(C)S1
inactive: dose: 75.0 mg/kg/injection, schedule: Q01DX001 (ip), vehicle: saline 97 % of control

CCCc1cc(CCC)n2nc(N)nc2n1
inactive: [10] 100 % of control | [1] 98 % of control | [2] 96 % of control

Cc1ccc(S(=O)(=O)NCCCc2c(C)nc(N)n(Cc3cccc([N+](=O)[O-])c3)c2=O)cc1
inactive: dose: 100.0 mg/kg/injection, schedule: Q01DX001 (ip), vehicle: Klucel (hydroxypropylcellulose) (HPC) 103 % of control | dose: 200.0 mg/kg/injection, schedule: Q01DX001 (ip), vehicle: Klucel (hydroxypropylcellulose) (HPC) 91 % of control | dose: 400.0 mg/kg/injection, schedule: Q01DX001 (ip), vehicle: Klucel (hydroxypropylcellulose) (HPC) 103 % of control

Cc1cc(C)c(-c2c(O)c(Br)c(-c3c(C)cc(C)c(Br)c3C)c(O)c2Br)c(C)c1Br
inactive: dose: 12.5 mg/kg/injection, schedule: Q01DX009 (ip), vehicle: Klucel (hydroxypropylcellulose) (HPC) 100 % of control | dose: 12.5 mg/kg/injection, schedule: Q04DX003 (ip), vehicle: Klucel (hydroxypropylcellulose) (HPC) 100 % of control | dose: 25.0 mg/kg/injection, schedule: Q01DX009 (ip), vehicle: Klucel (hydroxypropylcellulose) (HPC) 103 % of control | dose: 25.0 mg/kg/injection, schedule: Q04DX003 (ip), vehicle: Klucel (hydroxypropylcellulose) (HPC) 97 % of control | dose: 50.0 mg/kg/injection, schedule: Q01DX009 (ip), vehicle: Klucel (hydroxypropylcellulose) (HPC) 94 % of control | dose: 50.0 mg/kg/injection, schedule: Q04DX003 (ip), vehicle: Klucel (hydroxypropylcellulose) (HPC) 102 % of control | dose: 75.0 mg/kg/injection, schedule: Q01DX009 (ip), vehicle: Klucel (hydroxypropylcellulose) (HPC) 120 % of control

Nc1nc(N)c(-c2ccc(Cl)cc2)c(CNc2ccc(/C=C/C3(CCl)OCCO3)cc2)n1
inactive: [7] 92 % of control | [8] 100 % of control | [9] 96 % of control

O=C(OC1CC2CCC1CC2)c1ccc([N+](=O)[O-])cc1 (stereo not given)
inactive: [4] 97 % of control | [5] 95 % of control | [6] 92 % of control

O=c1[nH]nnc2ncn(C3OC(CO)C(O)C3O)c12 (stereo not given)
inactive: dose: 100.0 mg/kg/injection, schedule: Q01DX005 (ip), vehicle: saline 91 % of control | dose: 200.0 mg/kg/injection, schedule: Q01DX005 (ip), vehicle: saline 87 % of control

COc1ccc(C2NC(=O)N3C(c4ccc(OC)c(OC)c4)NC(=O)N23)cc1OC (stereo not given)
inactive: dose: 100.0 mg/kg/injection, schedule: Q04DX002 (ip), vehicle: gum acacia 98 % of control | dose: 200.0 mg/kg/injection, schedule: Q04DX002 (ip), vehicle: gum acacia 102 % of control | dose: 400.0 mg/kg/injection, schedule: Q04DX002 (ip), vehicle: gum acacia 105 % of control
